Experimental data from US3991202A, “Imidazolium salts” (Janssen Pharmaceutica N.V., priority 1974, dated 1976).
Like-named read-outs stand apart in the source and are kept apart here.

Columns and labels:
Type in all cases: cell-based
Pseudomonas aeruginosa = test: Antibacterial growth inhibition in phenol red dextrose broth; conditions: 168 h, Ps. aer., tested at 100, 10, 1 μg/ml, read-out: Concentration in μ g for 100% Growth Inhibition
Experimental: (§1) The tests on bacteria were performed on cultures on phenol red dextrose broth medium (Difco). By using decimal dilution techniques described for the tests for antifungal activity, test media containing 100 μg, 10 μg and 1 μg of imidazolium salt per milliliter of medium were obtained. The inoculum consisted of a platinum loop (5 mm diameter) from a 24 hour broth culture. Forty-eight hours after incubation, subcultures were made from each culture for the determination of antibacterial activity of the imidazolium salts. After seven days of incubation, observations were made to determine the presence or absence of bacterial growth.

Escherichia coli = test: as above; conditions: 168 h, E. coli, tested at 100, 10, 1 μg/ml, read-out: Concentration in μ g for 100% Growth Inhibition
Experimental: as §1

Erysipelothrix insidiosa = test: as above; conditions: Erysipelothrix rhusiopathiae, 168 h; E. ins.; tested at 100, 10, 1 μg/ml; read-out: Concentration in μ g for 100% Growth Inhibition
Experimental: as §1

Streptococcus pyogenes = test: as above; conditions: 168 h, Strep., tested at 100, 10, 1 μg/ml, read-out: Concentration in μ g for 100% Growth Inhibition
Experimental: as §1

[1] = system: Salmonella pullorum gallinarum; test: as above; conditions: Salmonella enterica, 168 h; Sp. G.; tested at 100, 10, 1 μg/ml; read-out: Concentration in μ g for 100% Growth Inhibition
Experimental: as §1

[2] = system: Staphylococcus hemolyticus; test: as above; conditions: 168 h, Staph., tested at 100, 10, 1 μg/ml, read-out: Concentration in μ g for 100% Growth Inhibition
Experimental: as §1

Trichophyton rubrum = test: Antifungal growth inhibition in Sabouraud's liquid medium; conditions: Trichophyton rubrum, 336 h; Tr.r.; tested at 100, 10, 1 μg/ml; read-out: Concentrations in μg/ml for 100% Inhibition of Growth
Experimental: (§2) Tests for the control of fungal organisms were performed using Sabouraud's liquid medium (1 g. of neopeptone Difco and 2 g. of glucose Difco per 100 ml. distilled water) in test tubes, each containing 4.5 ml. of liquid medium, autoclaved at 120° C for 15 minutes. The imidazolium salts were prepared for testing by dissolving in 50% ethanol to a concentration of 20 mg./ml. and thereafter diluting with sterile distilled water to obtain a concentration of 10 mg./ml. Successive decimal dilutions were then made with sterile distilled water to prepare a series of test solutions. In carrying out the test, 0.5 ml. of one of the test solutions is added to 4.5 ml. of Sabouraud's liquid medium to obtain a test medium. In this manner, from appropriate test solution, test media containing 100 μg, 10 μg and 1 μg of imidazolium salt per milliliter of medium were obtained.
(§3) Control tubes were prepared by adding 0.5 ml. of sterile distilled water to 4.5 ml. of medium. Ethanol was also added to simulate the amount which would be present in the test media. Filamentous fungi were incubated at 25° C for two to three weeks. A square block of side 2 mm. was excised and inoculated into the liquid medium. A 3-day old culture on Sabouraud's liquid medium was used for yeasts. The inoculum was 0.05 ml. per tube. All cultures were incubated at 25° C for 14 days.

Cryptococcus neoformans = test: as above; conditions: Cryptococcus neoformans, 336 h; Cr.n.; tested at 100, 10, 1 μg/ml; read-out: Concentrations in μg/ml for 100% Inhibition of Growth
Experimental: as §2, §3

[3] = system: Ctenomyces mentagrophytes; test: as above; conditions: Trichophyton mentagrophytes, 336 h; Ct.m.; tested at 100, 10, 1 μg/ml; read-out: Concentrations in μg/ml for 100% Inhibition of Growth
Experimental: as §2, §3

Microsporum canis = test: as above; conditions: Microsporum canis, 336 h, M.c., read-out: Concentrations in μg/ml for 100% Inhibition of Growth
Experimental: as §2, §3

MIC (Pseudomonas aeruginosa) [µg/mL]	MIC (Escherichia coli) [µg/mL]	MIC (Erysipelothrix insidiosa) [µg/mL]	MIC (Streptococcus pyogenes) [µg/mL]	MIC [1] [µg/mL]	MIC (Trichophyton rubrum) [µg/mL]	MIC (Cryptococcus neoformans) [µg/mL]	MIC [3] [µg/mL]	MIC (Microsporum canis; tested at 100, 10, 1 μg/ml) [µg/mL]	MIC (Microsporum canis; growth observed at 100 μg/ml) [µg/mL]	SMILES	MIC [2] [µg/mL]
100	10	1	1	10	1	10	10	10	–	Cc1ccc(OCC[n+]2ccn(CC(OCc3ccc(Cl)cc3Cl)c3ccc(Cl)cc3Cl)c2)cc1 (stereo not drawn) [(CH2)2OC6H4pCH3, 1-[2,4-dichloro-β-(2,4-dichlorobenzyloxy)phenethyl]-3-[2-(p-tolyoxy)ethyl]imidazolium bromide]	1
100	10	1	1	10	1	10	10	10	–	Clc1ccc(COC(Cn2cc[n+](CCOc3ccccc3)c2)c2ccc(Cl)cc2Cl)c(Cl)c1.[Br-] (stereo not drawn) [(CH2)2OC6H5, 1-[2,4-dichloro-β-(2,4-dichlorobenzyloxy)phenethyl]-3-(2-phenoxyethyl)imidazolium bromide]	1
100	10	1	1	10	1	10	1	10	–	Cc1ccc(C[n+]2ccn(CC(OCc3ccc(Cl)cc3Cl)c3ccc(Cl)cc3Cl)c2)cc1C.[Cl-] (stereo not drawn) [CH2C6H33,4(CH3)2, 1-[2,4-Dichloro-β-(2,4-dichlorobenzyloxy)phenethyl]-3-(3,4-dimethylbenzyl)imidazolium chloride]	1
100	10	1	1	10	1	10	1	1	–	OC(C[n+]1ccn(CC(OCc2ccc(Cl)cc2Cl)c2ccc(Cl)cc2Cl)c1)c1ccc(Cl)cc1Cl.[Cl-] (stereo not drawn) [CH2CHOHC6H32,4(Cl)2, 1-[2,4-dichloro-β-(2,4-dichlorobenzyloxy)phenethyl]-3-(2,4dichloro-β-hydroxyphenethyl)imidazolium chloride]	1
100	10	1	1	10	1	10	1	1	–	O=C(C[n+]1ccn(CC(OCc2ccc(Cl)cc2Cl)c2ccc(Cl)cc2Cl)c1)c1ccc(F)cc1.[Cl-] (stereo not drawn) [CH2COC6H4pF, 1-[2,4-dichloro-β-(2,4-dichlorobenzyloxy)phenethyl]-3-(p-fluorobenzoylmethyl)-imidazolium chloride]	1
100	10	1	1	10	1	1	1	10	–	Cc1ccccc1NC(=O)C[n+]1ccn(CC(OCc2ccc(Cl)cc2Cl)c2ccc(Cl)cc2Cl)c1 (stereo not drawn) [CH2CONHC6H4oCH3, 1-[2,4-Dichloro-β-(2,4-dichlorobenzyloxy)phenethyl]-3-(N-o-tolylcarbamoylmethyl)imidazolium chloride]	1
100	10	1	1	10	10	1	10	10	–	O=C(C[n+]1ccn(CC(OCc2ccc(Cl)cc2Cl)c2ccc(Cl)cc2Cl)c1)Nc1ccc(Cl)cc1Cl (stereo not drawn) [CH2CONHC6H32,4(Cl)2, 1-[2,4-dichloro-β-(2,4-dichlorobenzyloxy)phenethyl]-3-[N-(2,4-dichlorophenyl)carbamoylmethyl]imidazolium chloride hydrate]	1
100	100	10	1	10	10	100	1	–	> 100	O=C(C[n+]1ccn(CC(OCc2ccc(Cl)cc2)c2ccc(Cl)cc2)c1)Nc1ccc(F)cc1 (stereo not drawn) [pClC6H4/CH2C6H4pCl/CH2CONHC6H4pF, 1-[p-Chloro-β-(p-chlorobenzyloxy)phenethyl]-3-[N-(p-fluorophenyl)carbamoylmethyl]imidazolium chloride]	10
